In US20260207602A1, “EGFR INHIBITORS” (Blueprint Medicines Corporation, priority 2022, published 2026) one finds IC50 data, which are given here for 23 compounds.

Assay [1] has as its target T1, EGFR L858R (Homo sapiens, UniProt P00533, L858R).
T1 construct: purchased SignalChem E10-122BG
Description: Biochemical EGFR inhibition assay (Caliper mobility shift), EGFR L858R. Conditions: biochemical Caliper mobility shift assay, EGFR L858R enzyme; read-out: Enz EGFR L858R IC50. The method, boiled down: (§1)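 Apparent IC50 from Caliper separation of phospho-peptide from substrate. Conditions: 2.5 µM 5-FAM peptide, 1.0 mM ATP or ATP Km, pH 7.5 HEPES buffer, room temperature, 10–20% conversion, EDTA stop.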

Assay [2] has as its target T2, EGFR (d746-750) (Homo sapiens, UniProt P00533, DEL746-750).
T2 construct: purchased SignalChem E10-122JG
The assay can be described thus: Biochemical EGFR inhibition assay (Caliper mobility shift), EGFR (d746-750). Conditions: biochemical Caliper mobility shift assay, EGFR Exon 19-del enzyme; read-out: Enz EGFR Exon 19-del IC50. In a few lines:
as §1

Assay [3] has as its target intracellular phosphorylation of EGFR (Tyr1068) in PC-9 cells (Homo sapiens, UniProt P00533, DEL746-750). The assay can be described thus: PC-9 pEGFR AlphaLISA assay. The assay is classed as cell-based. Conditions: 4 hours incubation, read-out: Phos EGFR PC9 IC50. The method, boiled down: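 PC-9 cells (EGFR del746-750) in phenol-free DMEM/10% FBS, adhered overnight, then exposed to 10-point 4-fold compound dilutions for 4 h at 37 °C. Lysates assayed for pEGFR Tyr1068 by AlphaLISA SureFire Ultra; IC50 from percent pEGFR inhibition vs log concentration.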
On the technique in general: Bead proximity is the source of the signal in Alpha formats.

T2 sequence (P00533 with tags, fused parts or gaps DEL746-750 limits assumed): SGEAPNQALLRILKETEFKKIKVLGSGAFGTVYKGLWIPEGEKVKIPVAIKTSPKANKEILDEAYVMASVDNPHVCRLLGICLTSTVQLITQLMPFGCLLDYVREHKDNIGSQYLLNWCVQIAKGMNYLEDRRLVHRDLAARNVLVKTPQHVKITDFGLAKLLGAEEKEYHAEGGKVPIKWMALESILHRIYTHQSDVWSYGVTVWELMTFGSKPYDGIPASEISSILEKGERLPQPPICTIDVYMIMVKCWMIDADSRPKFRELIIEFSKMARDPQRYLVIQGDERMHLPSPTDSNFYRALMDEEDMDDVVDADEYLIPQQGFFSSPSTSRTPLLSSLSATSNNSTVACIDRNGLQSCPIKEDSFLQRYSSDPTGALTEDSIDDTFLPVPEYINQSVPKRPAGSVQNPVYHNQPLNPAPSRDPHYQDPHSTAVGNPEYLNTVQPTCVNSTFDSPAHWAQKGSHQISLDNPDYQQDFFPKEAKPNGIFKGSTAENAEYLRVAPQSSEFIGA
T1 sequence (P00533 25-1210 L858R): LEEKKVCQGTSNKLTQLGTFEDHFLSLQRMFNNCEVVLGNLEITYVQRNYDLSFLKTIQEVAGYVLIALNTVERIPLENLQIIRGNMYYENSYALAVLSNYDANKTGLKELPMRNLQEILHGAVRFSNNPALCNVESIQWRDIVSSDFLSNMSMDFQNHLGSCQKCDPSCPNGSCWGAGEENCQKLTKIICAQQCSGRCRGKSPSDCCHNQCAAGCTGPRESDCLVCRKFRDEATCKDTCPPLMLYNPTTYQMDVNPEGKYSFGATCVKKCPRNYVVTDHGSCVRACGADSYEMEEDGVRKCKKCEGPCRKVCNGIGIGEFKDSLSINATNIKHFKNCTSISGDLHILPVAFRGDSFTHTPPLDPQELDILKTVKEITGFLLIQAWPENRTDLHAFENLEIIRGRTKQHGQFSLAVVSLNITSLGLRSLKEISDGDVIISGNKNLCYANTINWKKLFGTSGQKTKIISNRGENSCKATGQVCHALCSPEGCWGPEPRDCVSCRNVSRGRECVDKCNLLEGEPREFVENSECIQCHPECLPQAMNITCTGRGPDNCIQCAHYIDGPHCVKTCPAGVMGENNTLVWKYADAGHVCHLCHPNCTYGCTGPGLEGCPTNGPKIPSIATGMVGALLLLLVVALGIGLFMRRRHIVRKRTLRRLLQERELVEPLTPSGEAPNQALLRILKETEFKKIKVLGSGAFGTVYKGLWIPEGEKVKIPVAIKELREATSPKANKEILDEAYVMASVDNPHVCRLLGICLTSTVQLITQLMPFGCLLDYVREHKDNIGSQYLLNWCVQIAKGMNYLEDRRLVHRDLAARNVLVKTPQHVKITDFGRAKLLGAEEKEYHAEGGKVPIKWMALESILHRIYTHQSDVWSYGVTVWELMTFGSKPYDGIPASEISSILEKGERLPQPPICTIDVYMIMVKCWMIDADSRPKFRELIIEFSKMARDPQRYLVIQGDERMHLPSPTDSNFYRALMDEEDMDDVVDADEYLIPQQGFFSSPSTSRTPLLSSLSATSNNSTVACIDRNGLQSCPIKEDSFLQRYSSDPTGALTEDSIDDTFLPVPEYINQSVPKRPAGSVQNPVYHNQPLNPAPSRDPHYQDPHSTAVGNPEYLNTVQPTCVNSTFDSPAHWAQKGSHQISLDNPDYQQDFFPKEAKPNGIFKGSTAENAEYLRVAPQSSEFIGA
Chain of intracellular phosphorylation of EGFR (Tyr1068) in PC-9 cells (P00533 with tags, fused parts or gaps DEL746-750): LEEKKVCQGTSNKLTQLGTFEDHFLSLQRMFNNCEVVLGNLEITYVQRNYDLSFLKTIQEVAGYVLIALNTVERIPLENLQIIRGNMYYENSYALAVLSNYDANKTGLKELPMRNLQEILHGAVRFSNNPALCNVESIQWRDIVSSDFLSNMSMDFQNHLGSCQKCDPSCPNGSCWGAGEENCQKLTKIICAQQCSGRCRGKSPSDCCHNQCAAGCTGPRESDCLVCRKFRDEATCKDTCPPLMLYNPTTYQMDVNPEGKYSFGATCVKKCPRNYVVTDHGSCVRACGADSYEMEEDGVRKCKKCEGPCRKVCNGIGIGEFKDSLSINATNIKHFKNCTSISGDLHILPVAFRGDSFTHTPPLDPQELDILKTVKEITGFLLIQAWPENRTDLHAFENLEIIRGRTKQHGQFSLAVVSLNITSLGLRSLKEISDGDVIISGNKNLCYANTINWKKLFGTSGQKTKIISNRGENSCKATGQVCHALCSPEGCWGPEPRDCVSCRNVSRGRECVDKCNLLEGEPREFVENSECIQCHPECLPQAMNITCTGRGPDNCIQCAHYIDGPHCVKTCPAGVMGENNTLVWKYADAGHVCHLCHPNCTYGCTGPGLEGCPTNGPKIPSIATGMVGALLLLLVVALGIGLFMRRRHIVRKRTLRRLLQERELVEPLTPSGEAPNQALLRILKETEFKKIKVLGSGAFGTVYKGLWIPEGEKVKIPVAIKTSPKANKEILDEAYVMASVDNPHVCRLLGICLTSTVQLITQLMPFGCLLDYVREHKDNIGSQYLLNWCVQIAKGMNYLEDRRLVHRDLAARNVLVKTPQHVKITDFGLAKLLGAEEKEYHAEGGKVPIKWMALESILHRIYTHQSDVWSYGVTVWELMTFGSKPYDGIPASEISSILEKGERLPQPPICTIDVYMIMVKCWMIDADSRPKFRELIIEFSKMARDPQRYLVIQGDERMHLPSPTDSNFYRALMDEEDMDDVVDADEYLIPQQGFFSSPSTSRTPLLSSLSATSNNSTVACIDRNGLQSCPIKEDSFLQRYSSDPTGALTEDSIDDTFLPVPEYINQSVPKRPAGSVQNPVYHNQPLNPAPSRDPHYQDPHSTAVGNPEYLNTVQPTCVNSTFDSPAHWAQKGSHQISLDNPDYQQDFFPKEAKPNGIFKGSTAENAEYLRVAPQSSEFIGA

The term IC50 denotes the point on the concentration scale where inhibition reaches its midpoint. For the compound `COc1cn(C)nc1-c1cc(OC2CCN(C)CC2)c2c(Nc3ccc4ncsc4c3)ncnc2c1` [Example 131, N-(7-(4-methoxy-1-methyl-1H-pyrazol-3-yl)-5-((1-methylpiperidin-4-yl)oxy)quinazolin-4-yl)benzo[d]thiazol-6-amine], the IC50 is 10.1 to 50 nM in assay [1], not above 10 nM in assay [2] and 10.1 to 50 nM in assay [3].
Turning to `COc1cc2ncnc(Nc3ccc4ncsc4c3)c2cc1-c1cnn(C)c1` [Example 132, N-(7-methoxy-6-(1-methyl-1H-pyrazol-4-yl)quinazolin-4-yl)benzo[d]thiazol-6-amine], the IC50 in assay [1], in assay [2] and in assay [3] was not above 10 nM each time.
As for `C[C@@H](Oc1cc(-c2cnn(C)c2)cc2ncnc(Nc3ccc4ncsc4c3)c12)C1COC1` [Example 133, (R)—N-(7-(1-methyl-1H-pyrazol-4-yl)-5-(1-(oxetan-3-yl)ethoxy)quinazolin-4-yl)benzo[d]thiazol-6-amine], the IC50 in assay [1], in assay [2] and in assay [3] was not above 10 nM throughout.
Regarding `Cn1cc(-c2cc(O[C@H]3CCCNC3)c3c(Nc4ccc5ncsc5c4)ncnc3c2)cn1` [Example 134, (S)-N-(7-(1-methyl-1H-pyrazol-4-yl)-5-(piperidin-3-yloxy)quinazolin-4-yl)benzo[d]thiazol-6-amine], the IC50 in assay [1] is not above 10 nM; in assay [2], not above 10 nM; in assay [3], 10.1 to 50 nM.
Consider `Cc1ccnn1-c1cc(OC2CCOCC2)c2c(Nc3ccc4ncsc4c3)ncnc2c1` [Example 135, N-(7-(5-methyl-1H-pyrazol-1-yl)-5-((tetrahydro-2H-pyran-4-yl)oxy)quinazolin-4-yl)benzo[d]thiazol-6-amine], for which the IC50 in assay [1] is 10.1 to 50 nM; in assay [2] it was 10.1 to 50 nM; in assay [3] it was more than 50.1 nM.
As to `Cc1ccn(-c2cc(OC3CCOCC3)c3c(Nc4ccc5ncsc5c4)ncnc3c2)n1` [Example 136, N-(7-(3-methyl-1H-pyrazol-1-yl)-5-((tetrahydro-2H-pyran-4-yl)oxy)quinazolin-4-yl)benzo[d]thiazol-6-amine], the IC50 in assay [1] was not above 10 nM; in assay [2], not above 10 nM; in assay [3] it was 10.1 to 50 nM.
As for `COC[C@H](C)Oc1cc(-c2cnn(C)c2)cc2ncnc(Nc3ccc4ncsc4c3F)c12` [Example 139, (S)-7-fluoro-N-(5-((1-methoxypropan-2-yl)oxy)-7-(1-methyl-1H-pyrazol-4-yl)quinazolin-4-yl)benzo[d]thiazol-6-amine], the IC50 in assay [1], in assay [2] and in assay [3] was not above 10 nM each time.
For the compound `C[C@H](CN(C)C)Oc1cc(-c2cnn(C)c2)cc2ncnc(Nc3ccc4ncsc4c3F)c12` [Example 140, (R)-N-(5-((1-(dimethylamino)propan-2-yl)oxy)-7-(1-methyl-1H-pyrazol-4-yl)quinazolin-4-yl)-7-fluorobenzo[d]thiazol-6-amine], the IC50 in assay [1], in assay [2] and in assay [3] was not above 10 nM each time.
Consider `COC[C@H](CN(C)C)Oc1cc(-c2cnn(C)c2)cc2ncnc(Nc3ccc4ncsc4c3)c12` [Example 141, (S)-N-(5-((1-(dimethylamino)-3-methoxypropan-2-yl)oxy)-7-(1-methyl-1H-pyrazol-4-yl)quinazolin-4-yl)benzo[d]thiazol-6-amine], for which the IC50 in assay [1] is 10.1 to 50 nM; in assay [2] it was not above 10 nM; in assay [3], 10.1 to 50 nM.
As to `COc1cc(O[C@H](C)CN(C)C)c2c(Nc3ccc4ncsc4c3F)ncnc2c1` [Example 146, (R)-N-(5-((1-(dimethylamino)propan-2-yl)oxy)-7-methoxyquinazolin-4-yl)-7-fluorobenzo[d]thiazol-6-amine], the IC50 in assay [1] was 10.1 to 50 nM; in assay [2] it was not above 10 nM; in assay [3] it was 10.1 to 50 nM.
`CN(C)C1CCC1Oc1cc(-c2cnn(C)c2)cc2ncnc(Nc3ccc4ncsc4c3)c12` [Example 153, N-(5-((1S,2S)-2-(dimethylamino)cyclobutoxy)-7-(1-methyl-1H-pyrazol-4-yl)quinazolin-4-yl)benzo[d]thiazol-6-amine OR N-(5-((1R,2R)-2-(dimethylamino)cyclobutoxy)-7-(1-methyl-1H-pyrazol-4-yl)quinazolin-4-yl)benzo[d]thiazol-6-amine]: the results for the IC50 in assay [1], in assay [2] and in assay [3] were not above 10 nM, not above 10 nM and 10.1 to 50 nM, respectively.
Turning to `COc1cc2ncnc(Nc3ccc4ncsc4c3)c2cc1-c1cnn(C2CCN(C)CC2)c1` [Example 163, N-(7-methoxy-6-(1-(1-methylpiperidin-4-yl)-1H-pyrazol-4-yl)quinazolin-4-yl)benzo[d]thiazol-6-amine], the IC50 in assay [1], in assay [2] and in assay [3] was not above 10 nM throughout.
As to `C[C@H](CN(C)C)Oc1cc(N2CC3CC(C2)O3)cc2ncnc(Nc3ccc4ncsc4c3F)c12` [Example 176, N-(7-(6-oxa-3-azabicyclo[3.1.1]heptan-3-yl)-5-(((R)-1-(dimethylamino)propan-2-yl)oxy)quinazolin-4-yl)-7-fluorobenzo[d]thiazol-6-amine], the IC50 in assay [1] was 10.1 to 50 nM; in assay [2], not above 10 nM; in assay [3], not above 10 nM.
In the case of `C[C@H](CN(C)C)Oc1cc(N2CC3CC(C2)O3)cc2ncnc(Nc3ccc4ncsc4c3)c12` [Example 177, N-(7-(6-oxa-3-azabicyclo[3.1.1]heptan-3-yl)-5-(((R)-1-(dimethylamino)propan-2-yl)oxy)quinazolin-4-yl)benzo[d]thiazol-6-amine], the IC50 in assay [1], in assay [2] and in assay [3] was not above 10 nM in each case.
On to `C[C@@H](Oc1cc(N2CC3CC(C2)O3)cc2ncnc(Nc3ccc4ncsc4c3F)c12)C1COC1` [Example 180, N-(7-(6-oxa-3-azabicyclo[3.1.1]heptan-3-yl)-5-((R)-1-(oxetan-3-yl)ethoxy)quinazolin-4-yl)-7-fluorobenzo[d]thiazol-6-amine], for which the IC50 in assay [1], in assay [2] and in assay [3] was not above 10 nM each time.
With `C[C@H](CN(C)C)Oc1cc(N2CC[C@H](C(C)(C)O)C2)cc2ncnc(Nc3ccc4ncsc4c3)c12` [Example 181, 2-((S)-1-(4-(benzo[d]thiazol-6-ylamino)-5-(((R)-1-(dimethylamino)propan-2-yl)oxy)quinazolin-7-yl)pyrrolidin-3-yl)propan-2-ol], the IC50 in assay [1], in assay [2] and in assay [3] was not above 10 nM in each case.
`C[C@H](CN(C)C)Oc1cc(N2CC[C@@H](C(C)(C)O)C2)cc2ncnc(Nc3ccc4ncsc4c3)c12` [Example 182, 2-((R)-1-(4-(benzo[d]thiazol-6-ylamino)-5-(((R)-1-(dimethylamino)propan-2-yl)oxy)quinazolin-7-yl)pyrrolidin-3-yl)propan-2-ol]: the half-inhibitory concentration (IC50) in assay [1], in assay [2] and in assay [3] was not above 10 nM throughout.
In the case of `C[C@H](CN(C)C)Oc1cc(N2CCOCC2)cc2ncnc(Nc3ccc4ncsc4c3F)c12` [Example 183, (R)-N-(5-((1-(dimethylamino)propan-2-yl)oxy)-7-morpholinoquinazolin-4-yl)-7-fluorobenzo[d]thiazol-6-amine], the figures for the half-maximal inhibitory concentration (IC50) in assay [1], in assay [2] and in assay [3] were 10.1 to 50 nM, not above 10 nM and 10.1 to 50 nM, respectively.
For the compound `C[C@@H](O)[C@@H](C)Oc1cc(-c2cnn(C)c2)cc2ncnc(Nc3ccc4ncsc4c3)c12` [Example 184, (2R,3R)-3-((4-(benzo[d]thiazol-6-ylamino)-7-(1-methyl-1H-pyrazol-4-yl)quinazolin-5-yl)oxy)butan-2-ol], the IC50 in assay [1], in assay [2] and in assay [3] was not above 10 nM in each case.
For the compound `Cn1cc(-c2cc(O[C@H]3CC[C@H]3O)c3c(Nc4ccc5ncsc5c4)ncnc3c2)cn1` [Example 185, (1R,2S)-2-((4-(benzo[d]thiazol-6-ylamino)-7-(1-methyl-1H-pyrazol-4-yl)quinazolin-5-yl)oxy)cyclobutan-1-ol], the IC50 in assay [1], in assay [2] and in assay [3] was not above 10 nM throughout.
Regarding `Cn1cc(-c2cc(O[C@@H]3CC[C@H]3O)c3c(Nc4ccc5ncsc5c4)ncnc3c2)cn1` [Example 186, (1R,2R)-2-((4-(benzo[d]thiazol-6-ylamino)-7-(1-methyl-1H-pyrazol-4-yl)quinazolin-5-yl)oxy)cyclobutan-1-ol], the half-inhibitory concentration (IC50) in assay [1], in assay [2] and in assay [3] was not above 10 nM in each case.
Regarding `CN(C)C1(COc2cc(-c3cnn(C)c3)cc3ncnc(Nc4ccc5ncsc5c4)c23)COC1` [Example 187, N-(5-((3-(dimethylamino)oxetan-3-yl)methoxy)-7-(1-methyl-1H-pyrazol-4-yl)quinazolin-4-yl)benzo[d]thiazol-6-amine], the concentration for half-maximal inhibition (IC50) was 10.1 to 50 nM in assay [1], not above 10 nM in assay [2] and 10.1 to 50 nM in assay [3].
For `CN(C)CC1(COc2cc(-c3cnn(C)c3)cc3ncnc(Nc4ccc5ncsc5c4)c23)COC1` [Example 188, N-(5-((3-((dimethylamino)methyl)oxetan-3-yl)methoxy)-7-(1-methyl-1H-pyrazol-4-yl)quinazolin-4-yl)benzo[d]thiazol-6-amine], the figures for the IC50 in assay [1], in assay [2] and in assay [3] were 10.1 to 50 nM, not above 10 nM and 10.1 to 50 nM, respectively.
